# Assays:
# [1] = tested on: SAGPY (Arrowhead (Pygmaea)); assay: Preemergence weed control under flooded paddy conditions; type: in vivo, Sagittaria pygmaea; conditions: rated 3-4 weeks after treatment
# Procedure, shortened: (§1)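 First, seeds or propagules go into the top 0.5 cm of silt loam; next, water is held 1.5 to 3 cm over the soil; then compound (50/50 acetone/water) is pipetted into it at about 0.0313 to 0.500 kg/ha; finally plants are rated visually 0-9 after three to four weeks.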
# [2] = tested on: TRZAWR (Wheat, Winter, cv Riband); assay: Postemergence herbicidal evaluation; type: in vivo, Triticum aestivum; conditions: postemergence
# Procedure, shortened: (§2)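 Visual 0-9 injury score (stand, vigor, malformation, size, chlorosis, appearance vs untreated) taken four to five weeks post-spray, averaged across repeat tests. Test plants about two weeks old; foliar spray of acetone/water (1:1) with 0.5% surfactant delivering ~0.0156-0.500 kg active/ha.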
# AMBEL (Ragweed, Common) [3] = assay: Preemergence herbicidal evaluation; type: in vivo, Ambrosia artemisifolia; conditions: rated 4-5 weeks after treatment
# Procedure, shortened: (§3)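 Rating at 4–5 wk post-spray on a 0–9 visual scale vs control. Application: aqueous acetone, ~0.0156–0.500 kg/ha, to soil surface after seeding, preemergence.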
# ABUTH (Velvetleaf) = assay: Preemergence herbicidal evaluation; type: in vivo, Abutilon theophrasti; conditions: rated 4-5 weeks after treatment
# Procedure, shortened: as §3
# [4] = tested on: CHEAL (Lambsquarters, Common); assay: Preemergence herbicidal evaluation; type: in vivo, Chenopodium album; conditions: rated 4-5 weeks after treatment
# Procedure, shortened: as §3
# [5] = tested on: IPOHE (Morningglory, Ivyleaf); assay: Preemergence herbicidal evaluation; type: in vivo, Ipomoea hederacea; conditions: rated 4-5 weeks after treatment
# Procedure, shortened: as §3
# AMBEL (Ragweed, Common) [6] = assay: Postemergence herbicidal evaluation; type: in vivo, Ambrosia artemisifolia; conditions: postemergence
# Procedure, shortened: as §2
# [7] = tested on: GLXMAW (Soybean, Williams); assay: Postemergence herbicidal evaluation; type: in vivo, Glycine max, (L.) Merr. cv Williams; conditions: postemergence
# Procedure, shortened: as §2
# CASOB (Sicklepod) [8] = assay: Preemergence herbicidal evaluation; type: in vivo, Cassia obtusifolia; conditions: rated 4-5 weeks after treatment
# Procedure, shortened: as §3
# ECHCG (Barnyardgrass) = assay: Postemergence herbicidal evaluation; type: in vivo, Echinochloa crus-galli; conditions: postemergence
# Procedure, shortened: as §2
# ORYSAT (Rice, Tebonnet) = assay: Preemergence herbicidal evaluation; type: in vivo, Oryza sativa, (L.) Tebonnet; conditions: rated 4-5 weeks after treatment
# Procedure, shortened: as §3
# [9] = tested on: IPOHE (Morningglory, Ivyleaf); assay: Postemergence herbicidal evaluation; type: in vivo, Ipomoea hederacea; conditions: postemergence
# Procedure, shortened: as §2
# [10] = tested on: CHEAL (Lambsquarters, Common); assay: Postemergence herbicidal evaluation; type: in vivo, Chenopodium album; conditions: postemergence
# Procedure, shortened: as §2
# CASOB (Sicklepod) [11] = assay: Postemergence herbicidal evaluation; type: in vivo, Cassia obtusifolia; conditions: postemergence
# Procedure, shortened: as §2
# MOOVA (Monochoria) = assay: Preemergence weed control under flooded paddy conditions; type: in vivo, Monochoria vaginalis; conditions: rated 3-4 weeks after treatment
# Procedure, shortened: as §1
# [12] = tested on: GLXMAW (Soybean, Williams); assay: Preemergence herbicidal evaluation; type: in vivo, Glycine max, (L.) Merr. cv Williams; conditions: rated 4-5 weeks after treatment
# Procedure, shortened: as §3
smiles,measurement,setting,value
CCOC(=O)/C=C1/S/C(=N/c2cc(-n3c(=O)cc(C(F)(F)F)n(C)c3=O)c(F)cc2Cl)N(CC(=O)OCC)C1=O [Compound 14],Herbicidal rating SAGPY,[1]; 0.0313 kg/ha,0.0
same,Herbicidal rating SAGPY,[1]; 0.0625 kg/ha,0.0
same,Herbicidal rating SAGPY,[1]; 0.1250 kg/ha,0.0
same,Herbicidal rating SAGPY,[1]; 0.2500 kg/ha,0.0
same,TRZAWR herbicidal rating,[2]; rate 0.0156 kg/ha,5.5
same,TRZAWR herbicidal rating,[2]; rate 0.0313 kg/ha,6.0
same,TRZAWR herbicidal rating,[2]; rate 0.0625 kg/ha,7.5
same,TRZAWR herbicidal rating,[2]; rate 0.1250 kg/ha,9.0
same,AMBEL preemergence herbicidal rating,"AMBEL (Ragweed, Common) [3]; rate 0.0313 kg/ha",0.0
same,AMBEL preemergence herbicidal rating,"AMBEL (Ragweed, Common) [3]; rate 0.0625 kg/ha",1.0
same,AMBEL preemergence herbicidal rating,"AMBEL (Ragweed, Common) [3]; rate 0.1250 kg/ha",6.5
same,AMBEL preemergence herbicidal rating,"AMBEL (Ragweed, Common) [3]; rate 0.2500 kg/ha",9.0
same,AMBEL preemergence herbicidal rating,"AMBEL (Ragweed, Common) [3]; rate 0.5000 kg/ha",9.0
same,ABUTH preemergence herbicidal rating,ABUTH (Velvetleaf); rate 0.0313 kg/ha,1.0
same,ABUTH preemergence herbicidal rating,ABUTH (Velvetleaf); rate 0.0625 kg/ha,2.0
same,ABUTH preemergence herbicidal rating,ABUTH (Velvetleaf); rate 0.1250 kg/ha,9.0
same,ABUTH preemergence herbicidal rating,ABUTH (Velvetleaf); rate 0.2500 kg/ha,9.0
same,ABUTH preemergence herbicidal rating,ABUTH (Velvetleaf); rate 0.5000 kg/ha,9.0
same,CHEAL preemergence herbicidal rating,[4]; rate 0.0313 kg/ha,9.0
same,CHEAL preemergence herbicidal rating,[4]; rate 0.0625 kg/ha,9.0
same,CHEAL preemergence herbicidal rating,[4]; rate 0.1250 kg/ha,9.0
same,CHEAL preemergence herbicidal rating,[4]; rate 0.2500 kg/ha,9.0
same,CHEAL preemergence herbicidal rating,[4]; rate 0.5000 kg/ha,9.0
same,IPOHE preemergence herbicidal rating,[5]; rate 0.0313 kg/ha,0.0
same,IPOHE preemergence herbicidal rating,[5]; rate 0.0625 kg/ha,1.5
same,IPOHE preemergence herbicidal rating,[5]; rate 0.1250 kg/ha,7.5
same,IPOHE preemergence herbicidal rating,[5]; rate 0.2500 kg/ha,9.0
same,IPOHE preemergence herbicidal rating,[5]; rate 0.5000 kg/ha,9.0
same,AMBEL herbicidal rating,"AMBEL (Ragweed, Common) [6]; rate 0.0156 kg/ha",9.0
same,AMBEL herbicidal rating,"AMBEL (Ragweed, Common) [6]; rate 0.0313 kg/ha",9.0
same,AMBEL herbicidal rating,"AMBEL (Ragweed, Common) [6]; rate 0.0625 kg/ha",9.0
same,AMBEL herbicidal rating,"AMBEL (Ragweed, Common) [6]; rate 0.1250 kg/ha",9.0
same,GLXMAW herbicidal rating,[7]; rate 0.0156 kg/ha,6.0
same,GLXMAW herbicidal rating,[7]; rate 0.0313 kg/ha,8.0
same,GLXMAW herbicidal rating,[7]; rate 0.0625 kg/ha,9.0
same,GLXMAW herbicidal rating,[7]; rate 0.1250 kg/ha,8.5
same,CASOB preemergence herbicidal rating,CASOB (Sicklepod) [8]; rate 0.0313 kg/ha,0.0
same,CASOB preemergence herbicidal rating,CASOB (Sicklepod) [8]; rate 0.0625 kg/ha,1.0
same,CASOB preemergence herbicidal rating,CASOB (Sicklepod) [8]; rate 0.1250 kg/ha,1.5
same,CASOB preemergence herbicidal rating,CASOB (Sicklepod) [8]; rate 0.2500 kg/ha,2.0
same,CASOB preemergence herbicidal rating,CASOB (Sicklepod) [8]; rate 0.5000 kg/ha,5.0
same,ECHCG herbicidal rating,ECHCG (Barnyardgrass); rate 0.0156 kg/ha,9.0
same,ECHCG herbicidal rating,ECHCG (Barnyardgrass); rate 0.0313 kg/ha,9.0
same,ECHCG herbicidal rating,ECHCG (Barnyardgrass); rate 0.0625 kg/ha,9.0
same,ECHCG herbicidal rating,ECHCG (Barnyardgrass); rate 0.1250 kg/ha,9.0
same,ORYSAT preemergence herbicidal rating,"ORYSAT (Rice, Tebonnet); rate 0.0313 kg/ha",0.0
same,ORYSAT preemergence herbicidal rating,"ORYSAT (Rice, Tebonnet); rate 0.0625 kg/ha",0.0
same,ORYSAT preemergence herbicidal rating,"ORYSAT (Rice, Tebonnet); rate 0.1250 kg/ha",0.5
same,ORYSAT preemergence herbicidal rating,"ORYSAT (Rice, Tebonnet); rate 0.2500 kg/ha",1.0
same,ORYSAT preemergence herbicidal rating,"ORYSAT (Rice, Tebonnet); rate 0.5000 kg/ha",3.0
same,IPOHE herbicidal rating,[9]; rate 0.0156 kg/ha,9.0
same,IPOHE herbicidal rating,[9]; rate 0.0313 kg/ha,9.0
same,IPOHE herbicidal rating,[9]; rate 0.0625 kg/ha,9.0
same,IPOHE herbicidal rating,[9]; rate 0.1250 kg/ha,9.0
same,CHEAL herbicidal rating,[10]; rate 0.0156 kg/ha,9.0
same,CHEAL herbicidal rating,[10]; rate 0.0313 kg/ha,9.0
same,CHEAL herbicidal rating,[10]; rate 0.0625 kg/ha,9.0
same,CHEAL herbicidal rating,[10]; rate 0.1250 kg/ha,9.0
same,CASOB herbicidal rating,CASOB (Sicklepod) [11]; rate 0.0156 kg/ha,0.0
same,CASOB herbicidal rating,CASOB (Sicklepod) [11]; rate 0.0313 kg/ha,2.0
same,CASOB herbicidal rating,CASOB (Sicklepod) [11]; rate 0.0625 kg/ha,2.0
same,CASOB herbicidal rating,CASOB (Sicklepod) [11]; rate 0.1250 kg/ha,9.0
same,Herbicidal rating MOOVA,MOOVA (Monochoria); 0.0313 kg/ha,4.5
same,Herbicidal rating MOOVA,MOOVA (Monochoria); 0.0625 kg/ha,4.5
same,Herbicidal rating MOOVA,MOOVA (Monochoria); 0.1250 kg/ha,4.5
same,Herbicidal rating MOOVA,MOOVA (Monochoria); 0.2500 kg/ha,0.0
same,GLXMAW preemergence herbicidal rating,[12]; rate 0.0313 kg/ha,0.0
same,GLXMAW preemergence herbicidal rating,[12]; rate 0.0625 kg/ha,0.0
same,GLXMAW preemergence herbicidal rating,[12]; rate 0.1250 kg/ha,2.0
same,GLXMAW preemergence herbicidal rating,[12]; rate 0.2500 kg/ha,3.0
same,GLXMAW preemergence herbicidal rating,[12]; rate 0.5000 kg/ha,6.0

# — US20020137929A1, “1 - (3-heterocyclylphenyl) isothiourea, -isourea, -guanidine and -amidine herbicidal agents” (Intellectual Property Department, BASF Aktiengesellschaft, priority 1998, published 2002)
